Test systems include HCT-15 colon; HS 578T breast; LOX IMVI melanoma; MOLT-4 leukemia; NCI-H460 lung; SK-MEL-2 melanoma; SK-MEL-28 melanoma; SK-MEL-5 melanoma; SNB-19 CNS; UO-31 renal.
Holding throughout (assay): DTP human tumour cell line panel, 48 h

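Grown in 96-well plates, cells were treated for 48 hours with each compound at five concentrations. Insufficient inhibition: endpoint recorded as highest concentration tested. TGI denotes the concentration required for complete inhibition of growth.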 Some results are limits rather than exact numbers.

Usually TGI stands for the concentration giving total growth inhibition. A lower TGI goes with more potent growth arrest. Take `Cc1ccc2c(C(=O)c3c(C)n(CCN4CCOCC4)c4ccccc34)cccc2c1`: the TGI amounted to 35.4 µM with HCT-15 colon; 25.6 µM in the assay on HS 578T breast; 42.1 µM with LOX IMVI melanoma; 36.3 µM in the assay on MOLT-4 leukemia; 89.3 µM in the assay with NCI-H460 lung; 42.4 µM in the assay with SK-MEL-2 melanoma. Besides, the TGI is above 100 µM in the assay with SK-MEL-28 melanoma, 13 µM in the assay on SK-MEL-5 melanoma, above 100 µM in the assay on SNB-19 CNS and above 100 µM in the assay with UO-31 renal.
On to `CN(Cc1cnc2nc(N)nc(N)c2n1)c1ccc(C(=O)NC(CCC(=O)NC(CC(P(=O)(O)O)P(=O)(O)O)C(=O)O)C(=O)O)cc1` (stereo not given), for which the TGI in the assay on HCT-15 colon, in the assay on HS 578T breast, with LOX IMVI melanoma, in the assay on MOLT-4 leukemia, in the assay on NCI-H460 lung and in the assay with SK-MEL-2 melanoma was above 100 µM throughout. For the same compound, the TGI in the assay with SK-MEL-28 melanoma, with SK-MEL-5 melanoma, with SNB-19 CNS and in the assay on UO-31 renal was above 100 µM throughout.
On to `O=C1CS(=O)(=O)C(c2cccc(Oc3ccccc3)c2)N1c1ccccc1` (stereo not given), for which the TGI with HCT-15 colon amounted to 66 µM; with HS 578T breast, 69.9 µM; in the assay on LOX IMVI melanoma, 32.7 µM; in the assay with MOLT-4 leukemia, 65.7 µM; with NCI-H460 lung, 38.4 µM; in the assay on SK-MEL-2 melanoma, 31.5 µM. Besides, the TGI is 85.4 µM in the assay on SK-MEL-28 melanoma, 29.3 µM in the assay with SK-MEL-5 melanoma, above 100 µM in the assay with SNB-19 CNS and 80.4 µM with UO-31 renal.
On to `COC([C@@H](OC(=O)c1ccccc1)[C@H](OC(=O)c1ccccc1)C(O)COC(=O)c1ccccc1)n1cc(C)c(=O)[nH]c1=O` (stereo not given in full), for which the total growth inhibition concentration (TGI) in the assay on HCT-15 colon is above 100 µM; in the assay with HS 578T breast it was above 100 µM; with LOX IMVI melanoma, above 100 µM; with MOLT-4 leukemia, 60.2 µM; in the assay on NCI-H460 lung, above 100 µM; in the assay with SK-MEL-2 melanoma, 67.1 µM. In addition, the TGI is above 100 µM in the assay on SK-MEL-28 melanoma, 24 µM in the assay with SK-MEL-5 melanoma, above 100 µM in the assay with SNB-19 CNS and above 100 µM in the assay with UO-31 renal.
In the case of `CC12ON(P(=O)(c3ccccc3)c3ccccc3)C(C)(c3ccccc31)c1ccccc12`, the TGI with HCT-15 colon, in the assay with HS 578T breast, in the assay on LOX IMVI melanoma, in the assay with MOLT-4 leukemia, with NCI-H460 lung and in the assay with SK-MEL-2 melanoma was above 100 µM each time. The concentration for total growth inhibition (TGI) in the assay with SK-MEL-28 melanoma, in the assay on SK-MEL-5 melanoma, in the assay with SNB-19 CNS and in the assay on UO-31 renal was above 100 µM throughout.
On to `COc1c2ccsc2c(OC)c2ccsc12`, for which the TGI with HCT-15 colon, with HS 578T breast, with LOX IMVI melanoma, in the assay on MOLT-4 leukemia, in the assay with NCI-H460 lung and with SK-MEL-2 melanoma was above 100 µM each time. In addition, the TGI in the assay on SK-MEL-28 melanoma, in the assay with SK-MEL-5 melanoma, in the assay with SNB-19 CNS and in the assay on UO-31 renal was above 100 µM each time.
As for `NC(=Nc1ccccc1)c1ccccc1N`, the concentration for total growth inhibition (TGI) with HCT-15 colon, in the assay with HS 578T breast, in the assay with LOX IMVI melanoma, with MOLT-4 leukemia, in the assay on NCI-H460 lung and in the assay with SK-MEL-2 melanoma was above 100 µM in each case. The TGI in the assay with SK-MEL-28 melanoma was 64.4 µM; with SK-MEL-5 melanoma, above 100 µM; in the assay on SNB-19 CNS, above 100 µM; in the assay with UO-31 renal, above 100 µM.
Take `CC(=O)N(C(C)=O)n1c(Cc2ccc(C)cc2)nn(C(C)=O)c1=O`: the TGI in the assay on HCT-15 colon, in the assay with HS 578T breast, in the assay with LOX IMVI melanoma, in the assay on MOLT-4 leukemia, in the assay on NCI-H460 lung and in the assay on SK-MEL-2 melanoma was above 100 µM throughout. For the same compound, the TGI in the assay with SK-MEL-28 melanoma, in the assay on SK-MEL-5 melanoma, in the assay with SNB-19 CNS and with UO-31 renal was above 100 µM throughout.
`COc1ccc(N=C2C(=Nc3ccc(OC)cc3)N(c3ccc(N(C)C)cc3)C(=S)N2c2ccc(OC)cc2)cc1`: the TGI with HCT-15 colon, in the assay with HS 578T breast, with LOX IMVI melanoma, in the assay on MOLT-4 leukemia, with NCI-H460 lung and with SK-MEL-2 melanoma was above 100 µM each time. Further, the TGI in the assay with SK-MEL-28 melanoma, in the assay on SK-MEL-5 melanoma, in the assay on SNB-19 CNS and in the assay on UO-31 renal was above 100 µM in each case.
As for `N=c1oc2ccccc2cc1-c1nc2ccccc2c(=O)[nH]1`, the TGI in the assay with HCT-15 colon is above 100 µM; in the assay on HS 578T breast, 84.3 µM; in the assay with LOX IMVI melanoma, above 100 µM; in the assay with MOLT-4 leukemia, above 100 µM; in the assay with NCI-H460 lung, above 100 µM; in the assay on SK-MEL-2 melanoma, above 100 µM. Also, the TGI in the assay with SK-MEL-28 melanoma, in the assay with SK-MEL-5 melanoma, in the assay with SNB-19 CNS and in the assay on UO-31 renal was above 100 µM throughout.
As for `Cc1ccc(S(=O)(=O)N/N=C2/CCC(C(C)(C)C)CC2Br)cc1` (stereo not given), the TGI in the assay with HCT-15 colon was above 100 µM; in the assay with HS 578T breast, 47.1 µM; in the assay with LOX IMVI melanoma it was 30.5 µM; in the assay with MOLT-4 leukemia, 49.3 µM; in the assay on NCI-H460 lung, above 100 µM; in the assay on SK-MEL-2 melanoma, 28.1 µM. Besides, the TGI with SK-MEL-28 melanoma was 54.5 µM; in the assay on SK-MEL-5 melanoma, 29.5 µM; with SNB-19 CNS, above 100 µM; in the assay on UO-31 renal, 33.4 µM.
Regarding `COCC12CCC(OC)C34C5CC6(O)C(OC)CC(OC(C)=O)(C5C6OC(=O)c5ccccc5)C(C(OC)C13)C4N(C)C2` (stereo not given), the TGI in the assay on HCT-15 colon, in the assay on HS 578T breast, with LOX IMVI melanoma, with MOLT-4 leukemia, with NCI-H460 lung and in the assay on SK-MEL-2 melanoma was above 100 µM in each case. Further, the TGI with SK-MEL-28 melanoma, with SK-MEL-5 melanoma, with SNB-19 CNS and in the assay with UO-31 renal was above 100 µM throughout.
As to `CCOC(=O)C(=O)CC(=O)C1=C(c2ccccc2OC)CC(c2cccs2)=CC1=O`, the TGI with HCT-15 colon, with HS 578T breast, with LOX IMVI melanoma, in the assay with MOLT-4 leukemia, in the assay with NCI-H460 lung and in the assay with SK-MEL-2 melanoma was above 100 µM each time. Besides, the TGI with SK-MEL-28 melanoma, with SK-MEL-5 melanoma, in the assay with SNB-19 CNS and in the assay with UO-31 renal was above 100 µM in each case.
As to `Cc1cc(O)cc(O)c1C(=O)O[C@]1(C)C(=O)C=C2C=C(/C=C/C(=O)O)OC=C2C1=O`, the TGI in the assay on HCT-15 colon, with HS 578T breast, with LOX IMVI melanoma, with MOLT-4 leukemia, with NCI-H460 lung and in the assay with SK-MEL-2 melanoma was above 100 µM throughout. Further, the TGI with SK-MEL-28 melanoma, in the assay on SK-MEL-5 melanoma, in the assay with SNB-19 CNS and in the assay with UO-31 renal was above 100 µM each time.
With `Cc1cc2oc(C)c(S(=O)(=O)NC(=O)Nc3ccc(Cl)cc3)c(=O)c2c(=O)o1`, the TGI in the assay with HCT-15 colon, in the assay on HS 578T breast, in the assay with LOX IMVI melanoma, in the assay on MOLT-4 leukemia, with NCI-H460 lung and in the assay with SK-MEL-2 melanoma was above 100 µM throughout. Moreover, the TGI in the assay with SK-MEL-28 melanoma, in the assay on SK-MEL-5 melanoma, with SNB-19 CNS and with UO-31 renal was above 100 µM throughout.
`CCOc1ccc(/C=C2\NC(=S)N(/C=C3\C(=O)Oc4ccccc4C3=O)C2=O)cc1`: the TGI in the assay with HCT-15 colon was 49.9 µM; in the assay on HS 578T breast, 96.2 µM; in the assay on LOX IMVI melanoma it was 87.5 µM; in the assay with MOLT-4 leukemia, 51.2 µM; in the assay on NCI-H460 lung, 51.8 µM; with SK-MEL-2 melanoma, 48 µM. In addition, the concentration for total growth inhibition (TGI) came out at 83.9 µM with SK-MEL-28 melanoma, 41.5 µM with SK-MEL-5 melanoma, 59.8 µM in the assay with SNB-19 CNS and 49.4 µM in the assay on UO-31 renal.
With `N#CC[N+]1(Cc2ccccn2)CCCC1`, the TGI in the assay with HCT-15 colon, with HS 578T breast, in the assay with LOX IMVI melanoma, in the assay with MOLT-4 leukemia, in the assay on NCI-H460 lung and with SK-MEL-2 melanoma was above 100 µM each time. In addition, the TGI with SK-MEL-28 melanoma, with SK-MEL-5 melanoma, in the assay on SNB-19 CNS and in the assay with UO-31 renal was above 100 µM throughout.
Consider `CCOC(=O)C(NC(=O)CC)(Nc1ccc(F)c(Cl)c1)C(F)(F)F` (stereo not given), for which the TGI in the assay on HCT-15 colon, with HS 578T breast, with LOX IMVI melanoma, in the assay with MOLT-4 leukemia, in the assay on NCI-H460 lung and with SK-MEL-2 melanoma was above 100 µM in each case. In addition, the TGI in the assay on SK-MEL-28 melanoma, with SK-MEL-5 melanoma, with SNB-19 CNS and in the assay on UO-31 renal was above 100 µM throughout.
`CCCC(=O)NC(Nc1ccc(F)cc1)(C(F)(F)F)C(F)(F)F`: the TGI is above 100 µM with HCT-15 colon; above 100 µM with HS 578T breast; above 100 µM in the assay on LOX IMVI melanoma; above 100 µM in the assay with MOLT-4 leukemia; above 100 µM in the assay with NCI-H460 lung; 67 µM in the assay with SK-MEL-2 melanoma. Besides, the TGI with SK-MEL-28 melanoma, in the assay on SK-MEL-5 melanoma, in the assay with SNB-19 CNS and in the assay with UO-31 renal was above 100 µM each time.
